Tests used:
[1] = target: T1, BRD4-BD1 (Homo sapiens, UniProt O60885); test: bromoKdELECT assay for binding affinity to BRD4-BD1; details: Table 6
T1 construct: made in house; host or cells: T7 phage grown in an E. coli host derived from BL21
Protocol: Compounds were tested using a bromoKdELECT assay. T7 phage strains displaying bromodomains were grown in parallel in 24-well blocks in an E. coli host derived from the BL21 strain. E. coli were grown to log-phase and infected with T7 phage from a frozen stock (multiplicity of infection=0.4) and incubated with shaking at 32° C. until lysis (90-150 minutes). The lysates were centrifuged (5,000×g) and filtered (0.2 μm) to remove cell debris. Streptavidin-coated magnetic beads were treated with biotinylated small molecule or acetylated peptide ligands for 30 minutes at room temperature to generate affinity resins for bromodomain assays. The liganded beads were blocked with excess biotin and washed with blocking buffer (SeaBlock (Pierce), 1% BSA, 0.05% Tween 20, 1 mM DTT) to remove unbound ligand and to reduce nonspecific phage binding. Binding reactions were assembled by combining bromodomains, liganded affinity beads, and test compounds in 1× binding buffer (17% SeaBlock, 0.33×PBS, 0.04% Tween 20, 0.02% BSA, 0.004% Sodium azide, 7.4 mM DTT). Test compounds were prepared as 1000× stocks in 100% DMSO. Kds were determined using an 11-point 3-fold compound dilution series with one DMSO control point. All compounds for Kd measurements are distributed by acoustic transfer (non-contact dispensing) in 100% DMSO. The compounds were then diluted directly into the assays such that the final concentration of DMSO was 0.09%. All reactions performed in polypropylene 384-well plates. Each was a final volume of 0.02 ml. The assay plates were incubated at room temperature with shaking for 1 hour and the affinity beads were washed with wash buffer (1×PBS, 0.05% Tween 20). The beads were then resuspended in elution buffer (1×PBS, 0.05% Tween […] non-biotinylated affinity ligand) and incubated at room temperature with shaking for 30 minutes. The bromodomain concentration in the eluates was measured by qPCR.

[2] = test system: VCaP cells; test: Cellular growth inhibition assay for VCaP cells, CellTiter-Glo; format: cell-based, human; details: Homo sapiens, VCaP, 72 h, 72 hours treatment, CellTiter-Glo 2.0
Method in brief: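 GI50 values come from four-parameter curve fits of luminescence data normalized to a zero baseline. Compound, in medium with 0.5% DMSO, was added one day after plating and left for 72 h before CellTiter-Glo 2.0 addition.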

Kd [1] | GI50 [2] | Compound
50 to 500 nM | – | Cc1sc2c(c1C)C(c1ccc(Cl)cc1)=N[C@@H](CC(=O)NCCN(C)c1ncc(C(=O)N[C@H]3C(C)(C)[C@H](Oc4ccc(C#N)c(Cl)c4)C3(C)C)cn1)c1nnc(C)n1-2 [Compound I-1, N-[3-(3-chloro-4-cyano-phenoxy)-2,2,4,4-tetramethyl-cyclobutyl]-2-[2-[[2-[(9S)-7-(4-chlorophenyl)-4,5,13-trimethyl-3-thia-1,8,11,12-tetrazatricyclo[8.3.0.02,6]trideca-2(6),4,7,10,12-pentaen-9-yl]acetyl]amino]ethyl-methyl-amino]pyrimidine-5-carboxamide]
50 to 500 nM | < 500 nM | Cc1sc2c(c1C)C(c1ccc(Cl)cc1)=N[C@@H](CC(=O)NCCCN1CCN(CCCOC3CCN(c4ncc(C(=O)N[C@H]5C(C)(C)[C@H](Oc6ccc(C#N)c(Cl)c6)C5(C)C)cn4)CC3)CC1)c1nnc(C)n1-2 [Compound I-10]
500 to 2500 nM | < 500 nM | Cc1sc2c(c1C)C(c1ccc(Cl)cc1)=N[C@@H](CC(=O)NCCOCCOCCOCCOC1CCN(c3ncc(C(=O)N[C@H]4C(C)(C)[C@H](Oc5ccc(C#N)c(Cl)c5)C4(C)C)cn3)CC1)c1nnc(C)n1-2 [Compound I-11]
> 2500 nM | > 3000 nM | Cc1sc2c(c1C)C(c1ccc(Cl)cc1)=N[C@H](CC(=O)NCCOCCOCCOCCOC1CCN(c3ncc(C(=O)N[C@H]4C(C)(C)[C@H](Oc5ccc(C#N)c(Cl)c5)C4(C)C)cn3)CC1)c1nnc(C)n1-2 [Compound I-13]
50 to 500 nM | – | Cc1sc2c(c1C)C(c1ccc(Cl)cc1)=N[C@@H](CC(=O)NCCOCCOCCOCC1CCN(c3ncc(C(=O)N[C@H]4C(C)(C)[C@H](Oc5ccc(C#N)c(Cl)c5)C4(C)C)cn3)CC1)c1nnc(C)n1-2 [Compound I-17]
50 to 500 nM | < 500 nM | Cc1sc2c(c1C)C(c1ccc(Cl)cc1)=N[C@@H](CC(=O)NCCOCCOCCOCC1CN(c3ncc(C(=O)N[C@H]4C(C)(C)[C@H](Oc5ccc(C#N)c(Cl)c5)C4(C)C)cn3)C1)c1nnc(C)n1-2 [Compound I-18]
> 2500 nM | > 3000 nM | Cc1sc2c(c1C)C(c1ccc(Cl)cc1)=N[C@H](CC(=O)NCCOCCOCCOCCOCCN(C)c1ncc(C(=O)N[C@H]3C(C)(C)[C@H](Oc4ccc(C#N)c(Cl)c4)C3(C)C)cn1)c1nnc(C)n1-2 [Compound I-19]
> 2500 nM | < 500 nM | Cc1sc2c(c1C)C(c1ccc(Cl)cc1)=N[C@@H](CC(=O)NCCCCCCCOC1CCN(c3ncc(C(=O)N[C@H]4C(C)(C)[C@H](Oc5ccc(C#N)c(Cl)c5)C4(C)C)cn3)CC1)c1nnc(C)n1-2 [Compound I-24]
500 to 2500 nM | < 500 nM | Cc1sc2c(c1C)C(c1ccc(Cl)cc1)=N[C@@H](CC(=O)NCCCCOCCOC1CCN(c3ncc(C(=O)N[C@H]4C(C)(C)[C@H](Oc5ccc(C#N)c(Cl)c5)C4(C)C)cn3)CC1)c1nnc(C)n1-2 [Compound I-28]
50 to 500 nM | 500 to 1500 nM | Cc1sc2c(c1C)C(c1ccc(Cl)cc1)=N[C@@H](CC(=O)NCCCN1CCN(CC3CCN(c4ncc(C(=O)N[C@H]5C(C)(C)[C@H](Oc6ccc(C#N)c(Cl)c6)C5(C)C)cn4)CC3)CC1)c1nnc(C)n1-2 [Compound I-36, N-((1r,3r)-3-(3-chloro-4-cyanophenoxy)-2,2,4,4-tetramethylcyclobutyl)-2-(4-((4-(3-(2-((S)-4-(4-chlorophenyl)-2,3,9-trimethyl-6H-thieno[3,2-f][1,2,4]triazolo[4,3-a][1,4]diazepin-6-yl)acetamido)propyl)piperazin-1-yl)methyl)piperidin-1-yl)pyrimidine-5-carboxamide]
500 to 2500 nM | < 500 nM | CCN(C)C(=O)C[C@@H]1N=C(c2ccc(OCCOC3CCN(c4ncc(C(=O)N[C@H]5C(C)(C)[C@H](Oc6ccc(C#N)c(Cl)c6)C5(C)C)cn4)CC3)cc2)c2c(sc(C)c2C)-n2c(C)nnc21 [Compound I-66]
50 to 500 nM | < 500 nM | CCNC(=O)C[C@@H]1N=C(c2ccc(OCC3CN(c4ncc(C(=O)N[C@H]5C(C)(C)[C@H](Oc6ccc(C#N)c(Cl)c6)C5(C)C)cn4)C3)cc2)c2c(sc(C)c2C)-n2c(C)nnc21 [Compound I-71]
500 to 2500 nM | < 500 nM | CCNC(=O)C[C@@H]1N=C(c2ccc(OCCOC3CCN(c4ncc(C(=O)N[C@H]5C(C)(C)[C@H](Oc6ccc(C#N)c(Cl)c6)C5(C)C)cn4)CC3)c(F)c2F)c2c(sc(C)c2C)-n2c(C)nnc21 [Compound I-73]
500 to 2500 nM | < 500 nM | CCNC(=O)C[C@@H]1N=C(c2ccc(OCCOC3CCN(c4ncc(C(=O)N[C@H]5C(C)(C)[C@H](Oc6ccc(C#N)c(Cl)c6)C5(C)C)cn4)CC3)cc2F)c2c(sc(C)c2C)-n2c(C)nnc21 [Compound I-75]
500 to 2500 nM | 500 to 1500 nM | CCNC(=O)C[C@@H]1N=C(c2ccc(OCCOC3CCN(c4ncc(C(=O)N[C@H]5C(C)(C)[C@H](Oc6ccc(C#N)c(Cl)c6)C5(C)C)cn4)CC3)c(F)c2)c2c(sc(C)c2C)-n2c(C)nnc21 [Compound I-76]
> 2500 nM | 1500 to 3000 nM | CCNC(=O)C[C@@H]1N=C(c2ccc(CCCC3CCN(c4ncc(C(=O)N[C@H]5C(C)(C)[C@H](Oc6ccc(C#N)c(Cl)c6)C5(C)C)cn4)CC3)cc2)c2c(sc(C)c2C)-n2c(C)nnc21 [Compound I-95]
> 2500 nM | 500 to 1500 nM | Cc1sc2c(c1C)C(c1ccc(CCCOC3CCN(c4ncc(C(=O)N[C@H]5C(C)(C)[C@H](Oc6ccc(C#N)c(Cl)c6)C5(C)C)cn4)CC3)cc1)=N[C@@H](CC(=O)NC(C)C)c1nnc(C)n1-2 [Compound I-100]
> 2500 nM | > 3000 nM | CCN(C)C(=O)C[C@@H]1N=C(c2ccc(CCCOC3CCN(c4ncc(C(=O)N[C@H]5C(C)(C)[C@H](Oc6ccc(C#N)c(Cl)c6)C5(C)C)cn4)CC3)cc2)c2c(sc(C)c2C)-n2c(C)nnc21 [Compound I-101]
500 to 2500 nM | < 500 nM | Cc1sc2c(c1C)C(c1ccc(CCCOC3CCN(c4ncc(C(=O)N[C@H]5C(C)(C)[C@H](Oc6ccc(C#N)c(Cl)c6)C5(C)C)cn4)CC3)cc1)=N[C@@H](CC(=O)NC1CC1)c1nnc(C)n1-2 [Compound I-102]
50 to 500 nM | < 500 nM | CCNC(=O)C[C@@H]1N=C(c2ccc(N(C)CC3CN(c4ncc(C(=O)N[C@H]5C(C)(C)[C@H](Oc6ccc(C#N)c(Cl)c6)C5(C)C)cn4)C3)cc2)c2c(sc(C)c2C)-n2c(C)nnc21 [Compound I-107]
50 to 500 nM | 500 to 1500 nM | CCNC(=O)C[C@@H]1N=C(c2ccc(N(C)CCN3CCN(c4ncc(C(=O)N[C@H]5C(C)(C)[C@H](Oc6ccc(C#N)c(Cl)c6)C5(C)C)cn4)CC3)cc2)c2c(sc(C)c2C)-n2c(C)nnc21 [Compound I-108]
< 50 nM | < 500 nM | CCNC(=O)C[C@@H]1N=C(c2ccc(N3CCC(N(C)C4CCN(c5ncc(C(=O)N[C@H]6C(C)(C)[C@H](Oc7ccc(C#N)c(Cl)c7)C6(C)C)cn5)CC4)CC3)cc2)c2c(sc(C)c2C)-n2c(C)nnc21 [Compound I-113]
50 to 500 nM | < 500 nM | CCNC(=O)C[C@@H]1N=C(c2ccc(N3CCC(OC4CCN(c5ncc(C(=O)N[C@H]6C(C)(C)[C@H](Oc7ccc(C#N)c(Cl)c7)C6(C)C)cn5)CC4)CC3)cc2)c2c(sc(C)c2C)-n2c(C)nnc21 [Compound I-114]
50 to 500 nM | 500 to 1500 nM | CCNC(=O)C[C@@H]1N=C(c2ccc(N(C)C3CN(CC4CCN(c5ncc(C(=O)N[C@H]6C(C)(C)[C@H](Oc7ccc(C#N)c(Cl)c7)C6(C)C)cn5)CC4)C3)cc2)c2c(sc(C)c2C)-n2c(C)nnc21 [Compound I-119]
